Target: T1, human recombinant histamine H2 receptor (Homo sapiens, UniProt P25021)
T1 construct: expressed in transfected cells; host or cells: Chinese hamster ovary (CHO) K1 cells
Assay: Histamine H2 radioligand binding (Aminopotentidine)
Details: read-out: Binding data (Percentage Inhibition) Histamine Binding H2
Procedure: To evaluate in radioligand binding assays the activity of compounds of the invention, human recombinant histamine H2 receptor expressed in Chinese hamster ovary (CHO) K1 cells [Ruat, M., Proc. Natl. Acad. Sci. USA. (1990), 87(5):1658] in a 50 mM Phosphate buffer, pH 7.4 was used. Compounds of the invention were incubated with 0.1 nM […] for 120 min at 25° C. Non-specific binding was estimated in the presence of 3 μM Tiotidine. Receptor proteins were filtered and washed, the filters were then counted to determine […] specifically bound. Compounds were screened at 1 μM or lower, using 1% DMSO as vehicle. Biochemical assay results are presented as the percent inhibition of specific binding in Table 2.

T1 sequence (P25021 whole entry): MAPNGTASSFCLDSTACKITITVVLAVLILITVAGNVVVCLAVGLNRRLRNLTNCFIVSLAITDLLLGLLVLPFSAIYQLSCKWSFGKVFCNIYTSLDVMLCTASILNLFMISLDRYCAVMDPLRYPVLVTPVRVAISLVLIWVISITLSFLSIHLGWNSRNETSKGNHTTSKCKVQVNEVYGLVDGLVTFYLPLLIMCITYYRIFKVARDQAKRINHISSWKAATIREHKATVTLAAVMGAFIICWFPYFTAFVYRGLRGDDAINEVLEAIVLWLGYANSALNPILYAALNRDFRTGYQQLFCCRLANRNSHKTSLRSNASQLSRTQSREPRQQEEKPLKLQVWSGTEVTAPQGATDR

Compound | inhibition at 1 µM [%]
Fc1ccc(CCn2c3c(c4cc(Cl)ccc42)CN2CCCC2C3)cc1 (centres unmarked) [Compound 2, 10-(4-fluorophenethyl)-7-chloro-2,3,5,10,11,11a-hexahydro-1H-indolizino[7,6-b]indole] | 17
Fc1ccc(CCn2c3c(c4cc(Cl)ccc42)C2CCCN2CC3)cc1 (centres unmarked) [Compound 1, 7-(4-fluorophenethyl)-10-chloro-2,3,5,6,7,11c-hexahydro-1H-indolizino[7,8-b]indole] | 15

— patent US9045482B2, “Pyrido[4,3-B]indoles and methods of use” (Medivation Technologies, Inc., priority 2009, dated 2015)
